Source: ChEMBL document CHEMBL4610007, “Design and synthesis of boron-containing diphenylpyrimidines as potent BTK and JAK3 dual inhibitors” (Bioorg Med Chem, 2020)
Each block holds one compound with its values, some of them ahead of it.

Key:
[1] = molecular target: Tyrosine-protein kinase BTK (Homo sapiens, UniProt Q06187)
Description: Inhibition of recombinant human His-tagged full length BTK expressed in baculovirus expression system using Ulight-Poly GT as substrate incubated for 2 hrs by Lanthascreen TR-FRET assay

Homo sapiens [2] = species: Homo sapiens; assay: Selectivity index, ratio of IC50 for recombinant human N-terminal GST-tagged JAK1 (850 to 1154 residues) expressed in baculovirus expression system to IC50 for recombinant human N-terminal His-tagged JAK3 (795 to 1124 residues) expressed in baculovirus expression system
[3] = molecular target: Tyrosine-protein kinase JAK2 (Homo sapiens, UniProt O60674)
Description: Inhibition of recombinant human N-terminal His-tagged JAK2 (826 to 1132 residues) expressed in baculovirus expression system using Ulight-Poly GT as substrate incubated for 2 hrs by Lanthascreen TR-FRET assay

Homo sapiens [4] = species: Homo sapiens; assay: Selectivity index, ratio of IC50 for recombinant human N-terminal GST-tagged TYK2 (871 to 1187 residues) expressed in baculovirus expression system to IC50 for recombinant human N-terminal His-tagged JAK3 (795 to 1124 residues) expressed in baculovirus expression system
[5] = molecular target: Non-receptor tyrosine-protein kinase TYK2 (Homo sapiens, UniProt P29597); assay: Inhibition of recombinant human N-terminal GST-tagged TYK2 (871 to 1187 residues) expressed in baculovirus expression system using Ulight-Poly GT as substrate incubated for 2 hrs by Lanthascreen TR-FRET assay
[6] = molecular target: T1, Tyrosine-protein kinase JAK3 (Homo sapiens, UniProt P52333)
T1 sequence (P52333 whole entry): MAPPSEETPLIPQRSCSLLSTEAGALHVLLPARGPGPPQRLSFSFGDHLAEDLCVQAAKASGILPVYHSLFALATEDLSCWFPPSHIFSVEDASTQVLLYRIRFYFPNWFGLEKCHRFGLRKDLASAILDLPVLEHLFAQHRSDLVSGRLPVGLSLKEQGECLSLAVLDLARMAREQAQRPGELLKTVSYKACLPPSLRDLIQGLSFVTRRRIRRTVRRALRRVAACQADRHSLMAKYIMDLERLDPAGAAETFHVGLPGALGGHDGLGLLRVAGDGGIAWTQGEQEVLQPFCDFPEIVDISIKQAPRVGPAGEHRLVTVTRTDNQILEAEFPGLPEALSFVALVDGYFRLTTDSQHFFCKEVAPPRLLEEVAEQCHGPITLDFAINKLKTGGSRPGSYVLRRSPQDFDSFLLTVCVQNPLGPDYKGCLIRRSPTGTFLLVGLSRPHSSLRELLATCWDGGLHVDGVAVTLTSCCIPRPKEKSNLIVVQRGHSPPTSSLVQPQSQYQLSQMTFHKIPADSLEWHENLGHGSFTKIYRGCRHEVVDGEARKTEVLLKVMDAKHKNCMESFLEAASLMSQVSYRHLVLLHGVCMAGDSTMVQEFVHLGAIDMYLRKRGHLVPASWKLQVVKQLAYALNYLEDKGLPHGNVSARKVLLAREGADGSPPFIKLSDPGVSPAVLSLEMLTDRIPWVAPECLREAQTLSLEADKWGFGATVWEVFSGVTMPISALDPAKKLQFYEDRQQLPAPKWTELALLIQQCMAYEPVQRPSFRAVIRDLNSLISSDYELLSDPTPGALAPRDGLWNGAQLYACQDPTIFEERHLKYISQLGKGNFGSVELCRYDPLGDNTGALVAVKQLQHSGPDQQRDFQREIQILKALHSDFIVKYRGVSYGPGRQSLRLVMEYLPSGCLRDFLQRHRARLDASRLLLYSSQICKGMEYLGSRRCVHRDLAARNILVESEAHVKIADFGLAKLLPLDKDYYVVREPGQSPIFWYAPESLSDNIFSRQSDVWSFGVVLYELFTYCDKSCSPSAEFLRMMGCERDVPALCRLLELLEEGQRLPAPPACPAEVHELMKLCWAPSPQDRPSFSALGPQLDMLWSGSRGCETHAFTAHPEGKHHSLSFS
Description: Inhibition of recombinant human N-terminal His-tagged JAK3 (795 to 1124 residues) expressed in baculovirus expression system using Ulight-Poly GT as substrate incubated for 2 hrs by Lanthascreen TR-FRET assay

[7] = molecular target: Tyrosine-protein kinase JAK1 (Homo sapiens, UniProt P23458); assay: Inhibition of recombinant human N-terminal GST-tagged JAK1 (850 to 1154 residues) expressed in baculovirus expression system using Ulight-Poly GT as substrate incubated for 2 hrs by Lanthascreen TR-FRET assay
Homo sapiens [8] = species: Homo sapiens; assay: Selectivity index, ratio of IC50 for recombinant human N-terminal His-tagged JAK2 (826 to 1132 residues) expressed in baculovirus expression system to IC50 for recombinant human N-terminal His-tagged JAK3 (795 to 1124 residues) expressed in baculovirus expression system
Raji = assay: cells; settings: Homo sapiens, 72 h
Description: Antiproliferative activity against human Raji cells assessed as reduction in cell viability incubated for 72 hrs by CCK-8 assay

JeKo-1 = assay: cells; settings: Homo sapiens, JeKo-1, 72 h
Description: Antiproliferative activity against human JeKo1 cells assessed as reduction in cell viability incubated for 72 hrs by CCK-8 assay

OCI-Ly10 = assay: cells; settings: Homo sapiens, OCI-Ly10, 72 h
Description: Antiproliferative activity against human OCI-LY10 cells assessed as reduction in cell viability incubated for 72 hrs by CCK-8 assay

in vitro [9] = settings: human, liver microsomes
in vitro [10] = settings: human, liver microsomes; remark: listed apart in the source
in vitro [11] = settings: human, liver microsomes; remark: listed apart in the source
Description: Metabolic stability in human liver microsomes assessed as compound remaining at 0.2 uM incubated for 60 mins by UPLC-MS/MS analysis

Ramos = assay: cells; settings: Homo sapiens, 72 h
Description: Antiproliferative activity against human Ramos cells assessed as reduction in cell viability incubated for 72 hrs by CCK-8 assay

HEL = assay: cells; settings: Homo sapiens, 72 h
Description: Antiproliferative activity against human HEL cells assessed as reduction in cell viability incubated for 72 hrs by CCK-8 assay

Sequence of Tyrosine-protein kinase JAK1 (P23458 whole entry, the tested form may be a part): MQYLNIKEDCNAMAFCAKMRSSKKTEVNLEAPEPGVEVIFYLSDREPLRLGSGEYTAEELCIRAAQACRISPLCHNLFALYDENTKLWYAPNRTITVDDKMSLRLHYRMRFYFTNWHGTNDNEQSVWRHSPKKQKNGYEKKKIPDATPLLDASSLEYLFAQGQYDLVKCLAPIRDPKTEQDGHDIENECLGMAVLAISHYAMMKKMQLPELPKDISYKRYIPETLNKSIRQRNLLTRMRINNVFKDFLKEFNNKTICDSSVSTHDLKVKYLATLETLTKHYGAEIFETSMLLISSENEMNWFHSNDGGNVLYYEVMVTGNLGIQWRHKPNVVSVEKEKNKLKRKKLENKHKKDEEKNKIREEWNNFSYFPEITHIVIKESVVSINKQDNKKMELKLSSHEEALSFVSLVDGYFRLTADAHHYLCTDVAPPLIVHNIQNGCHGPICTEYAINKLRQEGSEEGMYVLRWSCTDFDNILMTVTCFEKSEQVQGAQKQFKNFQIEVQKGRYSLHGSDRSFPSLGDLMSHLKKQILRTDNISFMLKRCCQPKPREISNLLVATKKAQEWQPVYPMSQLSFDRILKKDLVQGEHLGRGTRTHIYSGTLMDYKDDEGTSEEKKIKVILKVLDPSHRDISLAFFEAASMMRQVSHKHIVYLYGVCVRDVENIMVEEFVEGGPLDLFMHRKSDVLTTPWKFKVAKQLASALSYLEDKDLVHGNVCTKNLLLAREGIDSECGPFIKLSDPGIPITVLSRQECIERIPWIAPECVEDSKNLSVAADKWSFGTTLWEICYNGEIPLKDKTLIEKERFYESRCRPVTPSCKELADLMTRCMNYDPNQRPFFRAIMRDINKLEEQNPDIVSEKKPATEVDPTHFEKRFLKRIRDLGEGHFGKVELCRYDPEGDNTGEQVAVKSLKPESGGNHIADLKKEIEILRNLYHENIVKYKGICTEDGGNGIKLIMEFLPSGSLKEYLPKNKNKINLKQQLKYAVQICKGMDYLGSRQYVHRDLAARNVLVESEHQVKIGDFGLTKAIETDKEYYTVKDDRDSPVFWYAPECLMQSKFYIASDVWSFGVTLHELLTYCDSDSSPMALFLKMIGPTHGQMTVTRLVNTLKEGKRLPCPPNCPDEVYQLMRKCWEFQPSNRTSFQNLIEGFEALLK
Sequence of Tyrosine-protein kinase JAK2 (O60674 whole entry, the tested form may be a part): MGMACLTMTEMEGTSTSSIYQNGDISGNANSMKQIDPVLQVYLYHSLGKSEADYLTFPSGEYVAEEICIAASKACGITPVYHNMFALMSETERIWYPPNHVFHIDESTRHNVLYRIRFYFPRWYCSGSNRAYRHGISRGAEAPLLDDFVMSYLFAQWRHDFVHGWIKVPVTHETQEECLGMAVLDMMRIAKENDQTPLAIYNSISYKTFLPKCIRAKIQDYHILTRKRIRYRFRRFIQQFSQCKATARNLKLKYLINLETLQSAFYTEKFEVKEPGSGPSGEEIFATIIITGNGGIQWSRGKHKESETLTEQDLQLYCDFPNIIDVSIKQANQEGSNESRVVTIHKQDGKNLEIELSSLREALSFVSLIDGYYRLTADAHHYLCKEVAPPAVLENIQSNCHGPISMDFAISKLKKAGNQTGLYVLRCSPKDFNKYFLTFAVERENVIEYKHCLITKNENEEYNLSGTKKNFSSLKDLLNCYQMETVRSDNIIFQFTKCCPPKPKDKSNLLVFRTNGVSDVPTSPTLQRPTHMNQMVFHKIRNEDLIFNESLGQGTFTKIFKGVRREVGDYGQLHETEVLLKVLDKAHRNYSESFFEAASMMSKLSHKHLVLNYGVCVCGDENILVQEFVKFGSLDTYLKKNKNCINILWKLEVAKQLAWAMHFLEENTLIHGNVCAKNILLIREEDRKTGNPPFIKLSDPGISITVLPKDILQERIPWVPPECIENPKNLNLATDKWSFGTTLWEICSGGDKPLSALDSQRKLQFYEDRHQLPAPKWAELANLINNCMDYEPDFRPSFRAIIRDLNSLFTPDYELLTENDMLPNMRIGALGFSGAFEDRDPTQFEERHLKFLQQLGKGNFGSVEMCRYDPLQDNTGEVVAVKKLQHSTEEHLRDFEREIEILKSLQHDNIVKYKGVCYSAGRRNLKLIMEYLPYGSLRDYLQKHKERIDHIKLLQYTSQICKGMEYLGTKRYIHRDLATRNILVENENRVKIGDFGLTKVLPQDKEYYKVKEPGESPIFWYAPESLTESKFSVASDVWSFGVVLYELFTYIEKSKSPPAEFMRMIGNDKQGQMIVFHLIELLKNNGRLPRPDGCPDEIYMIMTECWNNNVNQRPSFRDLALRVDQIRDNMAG
Sequence of Non-receptor tyrosine-protein kinase TYK2 (P29597 whole entry, the tested form may be a part): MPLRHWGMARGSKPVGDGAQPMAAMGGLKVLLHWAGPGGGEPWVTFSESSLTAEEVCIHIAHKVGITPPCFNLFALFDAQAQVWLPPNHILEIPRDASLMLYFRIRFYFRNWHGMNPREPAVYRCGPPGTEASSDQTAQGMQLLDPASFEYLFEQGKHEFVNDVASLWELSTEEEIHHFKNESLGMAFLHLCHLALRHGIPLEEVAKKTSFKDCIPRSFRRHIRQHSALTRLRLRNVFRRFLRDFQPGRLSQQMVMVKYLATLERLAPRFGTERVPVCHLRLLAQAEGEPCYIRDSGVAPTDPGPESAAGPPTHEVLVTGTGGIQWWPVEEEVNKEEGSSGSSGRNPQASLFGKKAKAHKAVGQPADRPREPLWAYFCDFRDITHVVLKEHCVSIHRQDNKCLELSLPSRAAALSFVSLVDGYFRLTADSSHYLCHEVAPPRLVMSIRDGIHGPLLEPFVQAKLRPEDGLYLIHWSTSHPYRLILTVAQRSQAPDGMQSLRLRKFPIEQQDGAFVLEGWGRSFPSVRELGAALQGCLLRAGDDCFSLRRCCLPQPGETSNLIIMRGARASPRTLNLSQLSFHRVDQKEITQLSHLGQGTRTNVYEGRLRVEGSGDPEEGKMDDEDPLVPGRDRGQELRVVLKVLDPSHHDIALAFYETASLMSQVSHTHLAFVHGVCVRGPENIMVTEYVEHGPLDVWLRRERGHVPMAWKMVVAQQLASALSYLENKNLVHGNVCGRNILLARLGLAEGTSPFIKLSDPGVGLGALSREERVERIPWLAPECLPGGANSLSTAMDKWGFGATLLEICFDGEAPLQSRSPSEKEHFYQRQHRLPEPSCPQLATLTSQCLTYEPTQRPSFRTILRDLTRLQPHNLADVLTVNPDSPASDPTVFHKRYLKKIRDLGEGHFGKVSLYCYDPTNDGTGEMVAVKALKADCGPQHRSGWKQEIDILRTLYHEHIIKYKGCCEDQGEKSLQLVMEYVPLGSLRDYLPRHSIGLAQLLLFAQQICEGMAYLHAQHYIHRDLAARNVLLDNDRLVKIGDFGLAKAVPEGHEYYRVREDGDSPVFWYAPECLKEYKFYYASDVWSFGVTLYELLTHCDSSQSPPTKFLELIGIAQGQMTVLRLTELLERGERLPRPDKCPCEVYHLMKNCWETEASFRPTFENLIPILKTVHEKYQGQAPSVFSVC
Sequence of Tyrosine-protein kinase BTK (Q06187 whole entry, the tested form may be a part): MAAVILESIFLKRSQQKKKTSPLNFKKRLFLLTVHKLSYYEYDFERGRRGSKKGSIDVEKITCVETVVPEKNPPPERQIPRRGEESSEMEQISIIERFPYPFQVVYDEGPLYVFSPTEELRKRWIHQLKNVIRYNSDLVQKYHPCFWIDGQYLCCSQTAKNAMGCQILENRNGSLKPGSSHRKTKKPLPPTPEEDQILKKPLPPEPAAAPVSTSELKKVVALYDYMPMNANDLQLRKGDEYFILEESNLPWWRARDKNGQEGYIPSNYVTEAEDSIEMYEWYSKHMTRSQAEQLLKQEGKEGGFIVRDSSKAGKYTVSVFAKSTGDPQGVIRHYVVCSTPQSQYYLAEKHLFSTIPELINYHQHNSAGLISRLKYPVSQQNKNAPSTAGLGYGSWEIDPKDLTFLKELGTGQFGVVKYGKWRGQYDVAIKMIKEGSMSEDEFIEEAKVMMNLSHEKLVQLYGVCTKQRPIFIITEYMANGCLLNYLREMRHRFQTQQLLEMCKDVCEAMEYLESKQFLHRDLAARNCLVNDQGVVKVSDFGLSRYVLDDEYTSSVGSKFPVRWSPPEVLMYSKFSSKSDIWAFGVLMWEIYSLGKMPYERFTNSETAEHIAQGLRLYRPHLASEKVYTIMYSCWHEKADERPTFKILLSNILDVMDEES

IC50 [1]: 63 nM
Compound: C=CC(=O)Nc1cccc(Nc2nc(Nc3cccc4c3COB4O)ncc2C(F)(F)F)c1

IC50 [1]: 11.8 nM
Compound: CN(C)C/C=C/C(=O)Nc1cccc(Nc2nc(Nc3ccc4c(c3)COB4O)ncc2C(F)(F)F)c1

IC50 [1]: 156 nM
Compound: C=CC(=O)Nc1cccc(Nc2nc(Nc3cc4c(cc3F)COB4O)ncc2C(F)(F)F)c1

IC50 [1]: > 1000 nM
Compound: C=CC(=O)Nc1ccc(OC)c(Nc2nc(Nc3ccc4c(c3)B(O)OC4)ncc2C(F)(F)F)c1

Ratio IC50 (Homo sapiens [2]): > 1000 | IC50 [3]: > 1000 nM | Ratio IC50 (Homo sapiens [4]): > 1000 | IC50 [5]: > 1000 nM | IC50 [6]: 1 nM | IC50 [1]: 2 nM | IC50 [7]: > 1000 nM | Ratio IC50 (Homo sapiens [8]): > 1000
Compound: C=CC(=O)Nc1cccc(Nc2nc(Nc3ccc4c(c3)B(O)OC4(C)C)ncc2C(F)(F)F)c1

IC50 [1]: 268 nM
Compound: C=CC(=O)Nc1cccc(Nc2nc(Nc3cccc4c3B(O)OC4)ncc2C(F)(F)F)c1

IC50 [1]: 4.7 nM
Compound: C=CC(=O)Nc1cccc(Nc2nc(Nc3ccc4c(c3)B(O)OC4)ncc2Cl)c1

IC50 [1]: 36.8 nM
Compound: C=CC(=O)N1CCCC(Nc2nc(Nc3ccc4c(c3)COB4O)ncc2C(F)(F)F)C1 (centres undefined)

IC50 [1]: > 1000 nM
Compound: C=CC(=O)Nc1cccc(Nc2nc(NNc3ccccc3)ncc2C(F)(F)F)c1

IC50 [1]: 6.5 nM
Compound: C=CC(=O)Nc1cccc(Oc2nc(Nc3ccc4c(c3)COB4O)ncc2C(F)(F)F)c1

IC50 [1]: 8.2 nM
Compound: C=CC(=O)Nc1cccc(Nc2nc(Nc3ccc4c(c3)COB4O)ncc2OC)c1

IC50 [1]: 6.1 nM
Compound: C=CC(=O)Nc1cccc(Nc2nc(Nc3ccc4c(c3)B(O)OC4)ncc2C)c1

IC50 [1]: 8.5 nM
Compound: C=CC(=O)Nc1cccc(Nc2nc(Nc3ccc4c(c3)B(O)OC4)ncc2F)c1

Ratio IC50 (Homo sapiens [2]): > 1000 | IC50 [3]: > 1000 nM | Ratio IC50 (Homo sapiens [4]): > 1000 | IC50 [5]: > 1000 nM | IC50 [6]: 0.8 nM | IC50 [1]: 1.7 nM | IC50 [7]: > 1000 nM | Ratio IC50 (Homo sapiens [8]): > 1000
Compound: C=CC(=O)Nc1cccc(Oc2nc(Nc3ccc4c(c3)COB4O)ncc2OC)c1

IC50 (Raji): 17600 nM | IC50 (JeKo-1): 1300 nM | IC50 [3]: 534 nM | IC50 (OCI-Ly10): > 10000 nM | IC50 [6]: 8.5 nM | microsomal CLint at 1 h, 0.2 µM (in vitro [9]): 31.9 µL/min/mg | half-life at 1 h, 0.2 µM (in vitro [10]): 43.4 min | remaining at 1 h, 0.2 µM (in vitro [11]): 38.8% | IC50 [7]: > 1000 nM | IC50 (Ramos): 3900 nM | IC50 (HEL): 5300 nM
Compound: C=CC(=O)Nc1cccc(Nc2nc(Nc3ccc(OCCOC)cc3)ncc2F)c1 [SPEBRUTINIB]

Ratio IC50 (Homo sapiens [2]): > 1000 | IC50 (Raji): 6800 nM | IC50 (JeKo-1): 1200 nM | IC50 [3]: 972 nM | Ratio IC50 (Homo sapiens [4]): > 1000 | IC50 [5]: > 1000 nM | IC50 (OCI-Ly10): > 10000 nM | IC50 [6]: 0.5 nM | microsomal CLint at 1 h, 0.2 µM (in vitro [9]): 24.8 µL/min/mg | half-life at 1 h, 0.2 µM (in vitro [10]): 55.9 min | remaining at 1 h, 0.2 µM (in vitro [11]): 45% | IC50 [1]: 2.9 nM | IC50 [7]: > 1000 nM | IC50 (Ramos): 2300 nM | IC50 (HEL): 5100 nM | Ratio IC50 (Homo sapiens [8]): > 1000
Compound: C=CC(=O)Nc1cccc(Nc2nc(Nc3ccc4c(c3)B(O)OC4)ncc2C(F)(F)F)c1

Ratio IC50 (Homo sapiens [2]): > 1000 | IC50 [3]: 891 nM | Ratio IC50 (Homo sapiens [4]): > 1000 | IC50 [5]: > 1000 nM | IC50 [6]: 0.3 nM | IC50 [1]: 1.5 nM | IC50 [7]: > 1000 nM | Ratio IC50 (Homo sapiens [8]): > 1000
Compound: C=CC(=O)Nc1cccc(Nc2nc(Nc3ccc(B(O)O)cc3)ncc2C(F)(F)F)c1

IC50 [1]: > 1000 nM
Compound: C=CC(=O)Nc1cccc(Nc2nc(Oc3ccc4c(c3)B(O)OC4)ncc2C(F)(F)F)c1

IC50 [1]: 6.5 nM
Compound: C=CC(=O)Nc1cccc(Nc2nc(Nc3cccc(B(O)O)c3)ncc2C(F)(F)F)c1

Ratio IC50 (Homo sapiens [2]): > 1000 | IC50 (Raji): 1700 nM | IC50 (JeKo-1): 500 nM | IC50 [3]: 658 nM | Ratio IC50 (Homo sapiens [4]): > 1000 | IC50 [5]: > 1000 nM | IC50 (OCI-Ly10): 1000 to 10000 nM | IC50 [6]: 0.4 nM | microsomal CLint at 1 h, 0.2 µM (in vitro [9]): 23.6 µL/min/mg | half-life at 1 h, 0.2 µM (in vitro [10]): 58.8 min | remaining at 1 h, 0.2 µM (in vitro [11]): 47.2% | IC50 [1]: 0.6 nM | IC50 [7]: > 1000 nM | IC50 (Ramos): 500 nM | IC50 (HEL): 1100 nM | Ratio IC50 (Homo sapiens [8]): > 1000
Compound: C=CC(=O)Nc1cccc(Nc2nc(Nc3ccc4c(c3)COB4O)ncc2C(F)(F)F)c1

Ratio IC50 (Homo sapiens [2]): > 1000 | IC50 [3]: > 1000 nM | Ratio IC50 (Homo sapiens [4]): > 1000 | IC50 [5]: > 1000 nM | IC50 [6]: 1.5 nM | IC50 [1]: 1.9 nM | IC50 [7]: > 1000 nM | Ratio IC50 (Homo sapiens [8]): > 1000
Compound: C=CC(=O)Nc1cccc(Nc2nc(Nc3ccc4c(c3)B(O)OCC4)ncc2C(F)(F)F)c1
